From ChEMBL document CHEMBL3301562, “MMV Box screening against Plasmodium falciparum protein kinases and aminoacyl tRNA synthetases”

Columns and labels:
Format in all cases: functional
[1] = target: Calcium-dependent protein kinase 1 (Plasmodium falciparum, UniProt P62344); test: MMV: CDPK1 Protein kinase inhibition assay using recombinant PfCDPK1, syntide 2 peptide substrate, ATP and KinaseGlo to measure % inhibition at 1 uM MMV box compound.
[2] = target: T1, Putative uncharacterized protein pk7 (Plasmodium falciparum, UniProt O96214); test: Final concentrations were 1 uM ATP, 2 mM DTT, 20 mM MgCl2, 2 mM MnCl2, 0.01% BSA, and 6 ug/ml PK7, in a buffer of 20 mM Tris-HCl (pH 7.5). The enzyme itself was the only substrate present (since autophosphorylation occurs); 100 uM 1NA-PP1 was used as a control inhibitor. Incubation time was 3 hours.
T1 sequence (O96214 whole entry): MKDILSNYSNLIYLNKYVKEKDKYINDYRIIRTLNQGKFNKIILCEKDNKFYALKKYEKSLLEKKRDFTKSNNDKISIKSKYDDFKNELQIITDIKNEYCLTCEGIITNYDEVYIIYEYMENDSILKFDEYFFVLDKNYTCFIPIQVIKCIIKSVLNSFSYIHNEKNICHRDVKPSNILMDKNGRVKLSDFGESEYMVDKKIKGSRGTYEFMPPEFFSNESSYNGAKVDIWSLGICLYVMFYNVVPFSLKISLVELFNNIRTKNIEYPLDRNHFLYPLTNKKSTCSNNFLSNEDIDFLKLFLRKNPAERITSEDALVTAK

Lysine--tRNA ligase = Lysine--tRNA ligase (Plasmodium falciparum (isolate 3D7), UniProt Q8IDJ8); test: MMV: KRS recombinant Plasmodium falciparum Lysyl-tRNA-synthetase, assay with yeast tRNA, ATP, and lysine and 3 uM MMV malaria box compound, assay read out with kinase glo as % inhibition.
Lysine--tRNA ligase, sequence (Q8IDJ8 whole entry): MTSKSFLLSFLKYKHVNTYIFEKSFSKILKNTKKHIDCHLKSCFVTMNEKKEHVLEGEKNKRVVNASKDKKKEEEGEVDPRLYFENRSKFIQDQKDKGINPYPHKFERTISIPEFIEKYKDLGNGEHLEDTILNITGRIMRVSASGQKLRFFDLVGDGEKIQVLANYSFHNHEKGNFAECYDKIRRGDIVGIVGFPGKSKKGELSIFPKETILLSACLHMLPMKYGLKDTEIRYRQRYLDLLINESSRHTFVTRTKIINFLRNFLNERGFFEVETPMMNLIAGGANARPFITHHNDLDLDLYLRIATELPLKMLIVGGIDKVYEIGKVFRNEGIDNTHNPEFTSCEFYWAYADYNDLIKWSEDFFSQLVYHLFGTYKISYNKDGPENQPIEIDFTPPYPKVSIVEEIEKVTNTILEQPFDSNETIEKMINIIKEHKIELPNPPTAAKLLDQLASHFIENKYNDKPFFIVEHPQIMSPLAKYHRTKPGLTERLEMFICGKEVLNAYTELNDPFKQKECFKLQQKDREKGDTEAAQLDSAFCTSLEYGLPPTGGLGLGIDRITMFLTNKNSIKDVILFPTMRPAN

[3] = target: T2, Mitogen-activated protein kinase (Plasmodium falciparum, UniProt Q25917); test: Final concentrations were 1 uM ATP, 0.5 mM DTT, 1 mM MgCl2, 0.5 mg/mL BSA, and 10 ug/ml MAP2 in a buffer of 50 mM HEPES (pH 7.0). 0.5 mg/mL histone III-S served as the substrate (13); 100 uM AMP-PNP, an ATP analog, was used as a control inhibitor. Incubation time was 4 hours.
T2 sequence (Q25917 whole entry): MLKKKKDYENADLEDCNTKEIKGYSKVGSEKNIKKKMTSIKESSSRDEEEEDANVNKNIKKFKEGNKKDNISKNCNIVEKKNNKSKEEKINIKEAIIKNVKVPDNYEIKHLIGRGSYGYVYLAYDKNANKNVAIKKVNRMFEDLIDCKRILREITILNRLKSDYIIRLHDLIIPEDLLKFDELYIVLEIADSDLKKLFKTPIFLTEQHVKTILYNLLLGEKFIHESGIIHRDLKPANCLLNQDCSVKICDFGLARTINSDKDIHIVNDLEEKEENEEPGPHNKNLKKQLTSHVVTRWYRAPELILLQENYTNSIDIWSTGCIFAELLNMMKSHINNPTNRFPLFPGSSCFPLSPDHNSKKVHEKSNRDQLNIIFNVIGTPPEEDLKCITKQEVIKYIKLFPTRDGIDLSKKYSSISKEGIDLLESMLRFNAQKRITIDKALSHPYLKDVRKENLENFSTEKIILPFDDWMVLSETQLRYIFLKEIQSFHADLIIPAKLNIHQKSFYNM

[4] = target: T3, Calcium-dependent protein kinase 4 (Plasmodium falciparum (isolate 3D7), UniProt Q8IBS5); test: MMV: CDPK4 Protein kinase inhibition assay using recombinant PfCDPK4, syntide2 peptide substrate, ATP and KinaseGlo to measure % inhibition at 1 uM MMV box compound.
T3 sequence (Q8IBS5 whole entry): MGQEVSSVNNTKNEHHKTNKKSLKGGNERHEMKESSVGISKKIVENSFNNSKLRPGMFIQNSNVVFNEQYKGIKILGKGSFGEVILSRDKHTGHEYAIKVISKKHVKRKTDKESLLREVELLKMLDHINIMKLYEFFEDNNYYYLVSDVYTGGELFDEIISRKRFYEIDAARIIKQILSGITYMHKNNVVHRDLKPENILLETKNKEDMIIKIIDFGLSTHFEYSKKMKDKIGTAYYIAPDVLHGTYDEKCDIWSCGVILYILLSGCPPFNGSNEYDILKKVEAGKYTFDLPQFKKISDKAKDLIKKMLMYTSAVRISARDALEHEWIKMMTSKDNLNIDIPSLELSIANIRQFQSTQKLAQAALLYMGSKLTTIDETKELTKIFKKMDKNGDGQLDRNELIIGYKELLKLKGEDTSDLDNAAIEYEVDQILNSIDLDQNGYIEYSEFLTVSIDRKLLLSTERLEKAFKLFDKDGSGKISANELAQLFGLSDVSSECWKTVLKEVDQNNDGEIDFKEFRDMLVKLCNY

Proline--tRNA ligase = target: T4, Proline--tRNA ligase (Plasmodium falciparum (isolate 3D7), UniProt Q8I5R7); test: MMV: ProRS recombinant Plasmodium falciparum Prolyl-tRNA-synthetase, assay with yeast tRNA, ATP, and proline and 3 uM MMV malaria box compound, assay read out with kinase glo as % inhibition.
T4 sequence (Q8I5R7 whole entry): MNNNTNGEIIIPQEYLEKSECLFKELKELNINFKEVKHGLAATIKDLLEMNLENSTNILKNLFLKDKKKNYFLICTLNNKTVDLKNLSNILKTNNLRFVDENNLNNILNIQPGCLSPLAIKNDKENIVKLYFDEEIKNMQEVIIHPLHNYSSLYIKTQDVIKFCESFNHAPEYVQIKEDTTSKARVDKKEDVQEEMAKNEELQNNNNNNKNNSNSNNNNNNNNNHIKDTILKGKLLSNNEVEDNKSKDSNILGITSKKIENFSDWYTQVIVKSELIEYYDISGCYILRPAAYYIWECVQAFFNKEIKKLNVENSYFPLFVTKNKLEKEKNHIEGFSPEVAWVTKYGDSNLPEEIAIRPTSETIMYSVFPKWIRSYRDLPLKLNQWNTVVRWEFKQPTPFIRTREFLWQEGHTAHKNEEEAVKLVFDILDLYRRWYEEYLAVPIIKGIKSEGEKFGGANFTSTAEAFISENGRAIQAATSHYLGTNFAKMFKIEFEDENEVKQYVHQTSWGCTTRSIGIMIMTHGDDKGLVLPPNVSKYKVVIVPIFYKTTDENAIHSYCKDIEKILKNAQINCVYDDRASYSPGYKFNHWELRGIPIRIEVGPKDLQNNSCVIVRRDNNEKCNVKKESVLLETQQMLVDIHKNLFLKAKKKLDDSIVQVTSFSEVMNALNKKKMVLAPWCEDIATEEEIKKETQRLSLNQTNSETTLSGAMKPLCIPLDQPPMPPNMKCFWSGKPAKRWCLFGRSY

[5] = target: T5, Cdk-related protein kinase 6 (Plasmodium falciparum, UniProt O77239); test: Final concentrations were 1.5 uM ATP, 5 mM MnCl2, and 15 ug/ml PK6 in a buffer of 100 mM Tris-HCl (pH 7.5). 50 ug/mL MBP was provided as the substrate; 10 uM staurosporine was used as a control inhibitor. Incubation time was 3 hours and 40 minutes.The catalytic activity of each kinase was considered proportional to ATP consumed, as determined from measurements of residual [ATP] with the luciferase-based reagent Kinase-Glo (Promega) following incubation. Luminescence (proportional to residual [ATP]) was measured on the plate readers FLx800 (BioTek Instruments, Winooski, VT, USA) and MicroBeta2.
T5 sequence (O77239 whole entry): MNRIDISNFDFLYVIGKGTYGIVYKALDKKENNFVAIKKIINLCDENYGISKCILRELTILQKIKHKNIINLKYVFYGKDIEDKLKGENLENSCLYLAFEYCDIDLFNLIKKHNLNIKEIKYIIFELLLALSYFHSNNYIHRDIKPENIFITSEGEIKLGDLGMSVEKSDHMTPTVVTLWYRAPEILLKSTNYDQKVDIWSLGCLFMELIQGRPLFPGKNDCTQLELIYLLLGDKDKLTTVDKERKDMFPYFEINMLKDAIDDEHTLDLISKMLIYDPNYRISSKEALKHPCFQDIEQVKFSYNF

Measured: IC50

Calcium-dependent protein kinase 1, sequence (P62344 whole entry): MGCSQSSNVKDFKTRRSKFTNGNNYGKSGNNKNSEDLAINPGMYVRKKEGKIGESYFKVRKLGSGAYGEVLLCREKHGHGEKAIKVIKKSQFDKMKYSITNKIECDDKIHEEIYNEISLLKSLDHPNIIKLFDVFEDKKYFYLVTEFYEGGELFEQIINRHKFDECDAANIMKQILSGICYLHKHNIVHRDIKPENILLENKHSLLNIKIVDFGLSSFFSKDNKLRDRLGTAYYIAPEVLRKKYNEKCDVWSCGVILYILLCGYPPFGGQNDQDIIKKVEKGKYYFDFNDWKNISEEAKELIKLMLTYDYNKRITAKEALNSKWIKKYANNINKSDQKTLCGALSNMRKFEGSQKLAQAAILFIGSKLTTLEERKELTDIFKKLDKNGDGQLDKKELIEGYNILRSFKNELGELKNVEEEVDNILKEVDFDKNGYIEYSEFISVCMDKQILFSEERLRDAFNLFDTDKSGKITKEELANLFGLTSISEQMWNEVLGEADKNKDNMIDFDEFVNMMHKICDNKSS

CCOc1ccccc1NC(=O)CN1CCN(C(=O)c2ccco2)CC1
> 1000 nM: [1] | [2] | [3] | [4] | [5]
> 2500 nM: Lysine--tRNA ligase | Proline--tRNA ligase

CCOc1cc2c(cc1OCC)C(c1cc(Cl)c(O)c(OCC)c1)NCC2 (configuration not stated)
> 1000 nM: [1] | [2] | [3] | [4] | [5]
> 2500 nM: Lysine--tRNA ligase | Proline--tRNA ligase

COc1ccc(N2CCN(C(CNC(=O)CC(C)(C)C)c3ccc4c(c3)OCO4)CC2)cc1 (configuration not stated)
> 1000 nM: [1] | [2] | [3] | [4] | [5]
> 2500 nM: Lysine--tRNA ligase | Proline--tRNA ligase

CCCCCCn1c(=N)n(CC(O)COc2cccc(C)c2)c2ccccc21 (configuration not stated)
> 1000 nM: [1] | [2] | [3] | [4] | [5]
> 2500 nM: Lysine--tRNA ligase | Proline--tRNA ligase

COc1ccc(CN2CCN(Cc3ccccc3)CC2)c(O)c1
> 1000 nM: [1] | [2] | [3] | [4] | [5]
> 2500 nM: Lysine--tRNA ligase | Proline--tRNA ligase

OC(CNCc1ccccc1)Cn1c2ccccc2c2ccccc21 (configuration not stated)
> 2500 nM: Lysine--tRNA ligase | Proline--tRNA ligase
> 1000 nM: [1] | [2] | [3] | [4] | [5]

Clc1ccc2c(N3CCCC3)ccnc2c1
> 2500 nM: Lysine--tRNA ligase | Proline--tRNA ligase
> 1000 nM: [1] | [2] | [3] | [4] | [5]

COc1ccc(C(=O)C2CC2c2ccc(Cl)cc2)cc1 (configuration not stated)
> 1000 nM: [1] | [2] | [3] | [4] | [5]
> 2500 nM: Lysine--tRNA ligase | Proline--tRNA ligase

O=c1c2c([nH]c3ccccc13)CCCC2
> 2500 nM: Lysine--tRNA ligase | Proline--tRNA ligase
> 1000 nM: [1] | [2] | [3] | [4] | [5]

CCN1CCN(c2c(C(=O)c3ccccc3)cnc3cc(OC)c(OC)cc23)CC1
> 2500 nM: Lysine--tRNA ligase | Proline--tRNA ligase
> 1000 nM: [1] | [2] | [3] | [4] | [5]

CCCCN(CCCC)S(=O)(=O)c1ccc(NC(=O)c2ccco2)cc1
> 2500 nM: Lysine--tRNA ligase | Proline--tRNA ligase
> 1000 nM: [1] | [2] | [3] | [4] | [5]
